# Assay results: patent US11000065B2, “Aerosol generation and exposure system” (CHARLES R. DREW UNIVERSITY OF MEDICINE AND SCIENCE, priority 2016, dated 2021)
# Experiment: Electronic cigarette aerosol exposure experiment on mice: plasma concentrations
# Details: 9 mice; inhalation of aerosol from one electronic cigarette, 4 seconds per puff, one puff every 20 sec, 10 puffs per episode, one episode every 30 min, 4 episodes in 2 hours
smiles,measurement,value
CN1CCCC1c1cccnc1 (stereo not shown) [nicotine],Mouse plasma nicotine concentration (mean±SD),35.3 ± 20.0 ng/mL
